In brackets after ≈: the same amount, converted by molar mass. Several values for one entry are separate records, joined by “and”; a condition that tells them apart may be missing. Identical values can stand only once.
How the values were obtained:
[1] = test system: P. aeruginosa PA14; experiment: In vivo PA14 murine thigh infection; details: neutropenic CD-1 mice, 24 h post infection; fluorofolin 25 mg kg^−1 subcutaneous and/or SMX 100 mg kg^−1 intraperitoneal at 1 and 12 h; one value per mouse
Excerpt: (§1) For P. aeruginosa thigh infection model and maximum tolerated dose (MTD) studies, care and handling of female 5–6-week-old CD-1 conformed to Institutional Animal Care and Use Committee (IACUC) policies as carried out at the University of North Texas Health Science Center (Fort Worth, Texas) under UNTHSC IACUC-approved protocol nos. IACUC-2021-0003 and IACUC-2020-0039. Rodents were fed either base chow (Envigo) or base diet supplemented with 1.8 g kg^−1 thymidine (Sigma T9250) starting at 2 days before infection. All procedures were conducted in accordance with the UNTHSC IACUC-approved protocol. Animals were housed in rooms undergoing 10–15 air changes per hour. Air provided to the animal rooms was controlled for temperature and humidity and is fully monitored 24 h a day. Air pressure was balanced according to room use. Lighting was controlled in individual rooms by automatic timers with a standard 12 h on, 12 h off cycle.
Female 5–6-week-old CD-1 mice were rendered neutropenic by intraperitoneal cyclophosphamide treatment (Cytoxan) before this study. On day 0, mice were infected intramuscularly with 5.33 log c.f.u. per thigh PA14. Mice were treated subcutaneously with fluorofolin at 1 and 12 h post infection. For co-treatment, mice were treated with SMX intraperitoneally at 1 and 12 h post infection. […] In vivo efficacy was evaluated by the UNTHSC.

[2] = test system: P. aeruginosa PA14; assay type: cell-based, Pseudomonas aeruginosa; details: PA14, 4× MIC plates
[3] = Pharmacokinetic analysis after single oral dose; assay type: in vivo, mouse
Procedure: For pharmacokinetics determination, care and handling of male CD-1 mice approximately 6–8 weeks old conformed to institutional animal care and use policies as carried out at Pharmaron.
Pharmacokinetic properties were determined after a single dose of 200 mg kg^−1 fluorofolin given orally (PO). Plasma samples were taken from three mice at times 0.083, 0.25, 0.5, 1, 2, 4, 8 and 24 h, and quantitative analysis was performed using LC–MS/MS. Half-life was determined from plasma concentration after fluorofolin levels reached pseudo-equilibrium (4 h for mouse 1 and 2, and 2 h for mouse 3). Pharmacokinetic values were estimated using a non-compartmental model generated from WinNonlin 6.1. Pharmacokinetic analysis was carried out by Pharmaron.

[4] = Maximum tolerated dose; details: female, mouse, in vivo, sc; CD-1 mice, subcutaneous
Excerpt: as §1
MTD was determined by administration of compounds at increasing dosage until the maximum dose before adverse reactions were observed. Doses were increased in a stepwise manner from 1 mg kg^−1 to 5, 10, 25 and 50 mg kg^−1. […] The maximum tolerated dose of fluorofolin was determined to be 25 mg kg^−1 administered subcutaneously. MTD was evaluated by the UNTHSC.

[5] = test system: WI-38 (embryonic lung tissue); experiment: Mammalian cell cytotoxicity, WI-38; assay type: cell-based, human
[6] = test system: S. epidermidis; experiment: Growth with or without TMI supplementation and fluorofolin, S. epidermidis; assay type: cell-based, Staphylococcus epidermidis; details: fluorofolin 2X MIC
Procedure: Where listed, growth media were prepared according manufacturer recommendations: LB broth and LB broth supplemented with 0.3 mM thymine (BD Biosciences 244610, Alfa Aesar A15879), 0.3 mM methionine (Sigma-Aldrich M9625), 0.3 mM inosine (EMD Millipore 4060), cation-adjusted Mueller–Hinton II broth (CAMHB) (BD 212322) or 0.3 mM thymidine (Sigma-Aldrich T1895), Gutnick minimal media (1.0 g l^−1 K2SO4, 13.5 g l^−1 K2HPO4, 4.7 g l^−1 KH2PO4, 0.1 g l^−1 MgSO4·7H2O, 10 mM NH4Cl as a nitrogen source and 0.4% w/v glucose as a carbon source)[65].
Extended Data Fig. 3 TMI supplementation can also rescue other species from fluorofolin DHFR inhibition. […] (f) P. aeruginosa PA14 or E. coli lptd4213 treated with fluorofolin 50 μg/mL in the presence or absence of 0.3 mM thymidine. (g) E. coli lptd4213 treated with fluorofolin 50 μg/mL and SMX (78.1 μg/mL) in the presence or absence of 0.3 mM thymidine or 0.3 mM TMI supplementation, Curves represent average optical at 600 nm (OD600) of 2 biological replicates. Means are shown. Source data

[7] = test system: Escherichia coli lptD4213; experiment: MIC against E. coli lptD4213 in LB broth; assay type: cell-based; details: LPTD4213, 16 h
Procedure: Overnight cultures were diluted 1:150 in LB broth and added to a 96-well plate. Antibiotics were serially diluted 1:2 and added to columns of the 96-well plate and grown at 37 °C with continuous shaking. Cell growth was measured using optical density at 600 nm (OD600). MIC assays were performed in either BioTek Synergy HT or Tecan InfiniteM200 Pro microplate readers.

[8] = test system: HK-2 (human kidney epithelial); experiment: Mammalian cell cytotoxicity, HK-2; assay type: cell-based; details: 72 h, CyQUANT, read-out: IC50 Fluorofolin
Procedure: HK-2 (500 cells per well) (ATCC CRL-2190), HLF (500 cells per well) (Cell Applications 506K-05a), WI-38 (500 cells per well) (ATCC CCL-75) or PBMC (5,000 cells per well) (TPCS PB010C) cells were seeded in white opaque 384-well plates. After 24 h, DMSO or compounds were added in 3-fold dilutions and cells incubated for 72 h. For PBMC, CellTiter-Glo reagent was added in equal volume and incubated for 30 min, after which luminescence was read. For other cell types, CyQUANT detection reagent was added in equal volume and cells incubated for 1 h, after which fluorescence was read with standard green filter set […]. Cell toxicity was evaluated by Pharmaron.

[9] = CD-1 mice, 200 mg/kg PO, mean of three mice
[10] = male, mouse, plasma, CD-1 mice, 200 mg/kg PO, mean of three mice

Structure (SMILES): Nc1nc(N)c2c(ccc3c2ccn3Cc2ccnc(F)c2)n1 [fluorofolin]
- PA14 load in thigh [1]: 9.3 log 10(CFU/ mouse) and 9.24 log 10(CFU/ mouse) and 9.05 log 10(CFU/ mouse) and 9.1 log 10(CFU/ mouse)
- resistance frequency compared between antibiotics [2]: significantly lower resistance frequency than meropenem
- plasma concentration ([3]; 0.083 h after 200 mg kg^−1 PO, one value per mouse): 1290 ng/mL and 1470 ng/mL
- plasma concentration ([3]; 0.25 h after 200 mg kg^−1 PO, one value per mouse): 2880 ng/mL and 2500 ng/mL
- plasma concentration ([3]; 0.5 h after 200 mg kg^−1 PO, one value per mouse): 3070 ng/mL and 2970 ng/mL
- plasma concentration ([3]; 1 h after 200 mg kg^−1 PO, one value per mouse): 3980 ng/mL and 3260 ng/mL
- plasma concentration ([3]; 2 h after 200 mg kg^−1 PO, one value per mouse): 4080 ng/mL and 3760 ng/mL
- plasma concentration ([3]; 4 h after 200 mg kg^−1 PO, one value per mouse): 4460 ng/mL and 3060 ng/mL
- plasma concentration ([3]; 8 h after 200 mg kg^−1 PO, one value per mouse): 2580 ng/mL and 1400 ng/mL
- plasma concentration ([3]; 24 h after 200 mg kg^−1 PO, one value per mouse): 430 ng/mL and 287 ng/mL and 1740 ng/mL
- AUC_% Extrap_obs [3, 9]: 23.3970%
- AUC_last/D [3, 9]: 231.6700 h*ng/mL per mg/kg
- T1/2 ([3]; CD-1 mice, 200 mg/kg PO, mean of three mice, 200 mg/kg): 12.1050 h
- concentration at 0.083 h ([3]; male, CD-1, mouse, plasma, po, 200 mg kg^−1, 0.083 h after 200 mg kg^−1 PO, one value per mouse): 880 ng/mL
- concentration at 0.25 h ([3]; male, CD-1, mouse, plasma, po, 200 mg kg^−1, 0.25 h after 200 mg kg^−1 PO, one value per mouse): 2220 ng/mL
- concentration at 0.5 h ([3]; male, CD-1, mouse, plasma, po, 200 mg kg^−1, 0.5 h after 200 mg kg^−1 PO, one value per mouse): 2810 ng/mL
- concentration at 1 h ([3]; male, CD-1, mouse, plasma, po, 200 mg kg^−1, 1 h after 200 mg kg^−1 PO, one value per mouse): 2930 ng/mL
- concentration at 2 h ([3]; male, CD-1, mouse, plasma, po, 200 mg kg^−1, 2 h after 200 mg kg^−1 PO, one value per mouse): 3640 ng/mL
- concentration at 4 h ([3]; male, CD-1, mouse, plasma, po, 200 mg kg^−1, 4 h after 200 mg kg^−1 PO, one value per mouse): 3460 ng/mL
- concentration at 8 h ([3]; male, CD-1, mouse, plasma, po, 200 mg kg^−1, 8 h after 200 mg kg^−1 PO, one value per mouse): 1640 ng/mL
- half-life ([3]; male, CD-1, mouse, plasma, po, 200 mg/kg, CD-1 mice, 200 mg/kg PO, mean of three mice): 12.1 h
- AUC(0-inf) [3, 10]: 68800 ng·h/mL
- AUC(0-t) [3, 10]: 46300 ng·h/mL
- Cmax [3, 10]: 3950 ng/mL
- Tmax [3, 10]: 2.67 h
- MRT inf ([3]; male, mouse, plasma, CD-1 mice, 200 mg/kg PO, mean of three mice, read-out: MRT_Inf_obs): 18.2 h
- peak concentration ([3]; mice, oral administration): 4.0 µg/mL
- MTD [4]: 25 mg/kg
- IC50 ([5]; Homo sapiens, WI-38, 72 h, CyQUANT, read-out: IC50 Fluorofolin): 14.4 µg/mL (≈ 46.8 µM)
- increase in IC50 compared with IRS-16 ([5]; WI-38 cells): 58.5 fold
- rescue of growth inhibition by TMI supplementation [6]: could also be rescued from fluorofolin growth inhibition by TMI supplementation
- MIC [7]: 0.02 µg/mL
- IC50 [8]: 51.7 µg/mL (≈ 168 µM)
